{"source": "patent US5824533A", "about": "“Orpinomyces xylanase proteins and coding sequences” (University of Georgia Research Foundation, Inc., priority 1995, dated 1998)", "test_system": "Orpinomyces sp. strain PC-2 endoxylanase XynA-1 (purified native enzyme, 29 kDa)", "experiment": "Effect of reagents on purified endoxylanase activity (residual activity on oat spelt xylan)", "type": "biochemical", "description": "Enzyme assays: All enzyme assays were carried out in duplicate and in 50 mM piperazine/HCl buffer at pH 5.5 and 40° C. unless otherwise stated.\na. Xylanase activity was assayed by mixing a 0.2 ml aliquot of diluted enzyme with 0.4 ml buffer containing 1.0% (w/v) oat spelt xylan (Sigma Chemical Co., St. Louis, Mo.), preheated to 40° C. After 15 min at 40° C., the reaction was terminated by the addition of 1.2 ml of 3,5-dinitrosalicylic acid (DNS) (Miller, 1959), followed by 0.2 ml of 2.5N NaOH to dissolve the residual water-insoluble xylan. The reaction tube was then placed in boiling water for 5 min before determining the absorbance at 550 nm (A550 nm). Xylose was used as the standard.\nThe effects of various metal ions and reagents on xylanase activity were determined in 50 mM piperazine-HCl, pH 5.5. The enzyme and metal ions or reagents (1 and 3 mM) were preincubated at 22° C. for 10 min; residual activities were measured at 40° C.", "key": {"[1]": {"settings": "reagent 1 mM, preincubated 22° C. 10 min, residual activity at 40° C., 50 mM piperazine-HCl pH 5.5, control without reagent = 100%"}, "[2]": {"settings": "reagent 3 mM, preincubated 22° C. 10 min, residual activity at 40° C., 50 mM piperazine-HCl pH 5.5, control without reagent = 100%"}, "[3]": {"settings": "reagent 1 and 3 mM, 50 mM piperazine-HCl pH 5.5"}}, "note": "Several values for one entry are separate records, joined by “and”; a condition that tells them apart may be missing. Equal values may be shown once. Entries after “also recorded” stand apart in the source; their conditions may differ.", "data": [{"smiles": "OCCS", "note": "[β-Mercaptoethanol]", "values": [{"measurement": "Relative activity (%)", "setting": "[1]", "value": 96.7, "unit": "%"}, {"measurement": "Relative activity (%)", "setting": "[2]", "value": 95.4, "unit": "%"}, {"measurement": "Effect on xylanase activity (in words)", "setting": "[3]", "value": "do not significantly effect xylanase activity"}]}, {"smiles": "O=C(O)CN(CCN(CC(=O)O)CC(=O)O)CC(=O)O", "note": "[EDTA]", "values": [{"measurement": "Effect on xylanase activity (in words)", "setting": "pH 5.5", "value": "do not significantly effect xylanase activity"}, {"measurement": "Relative activity (%)", "setting": "pH 5.5", "value": "96.3% and 93.7%"}]}, {"smiles": "O=C1CCC(=O)N1Br", "note": "[N-Bromosuccinimide]", "values": [{"measurement": "Effect on xylanase activity (in words)", "setting": "reagent 1 mM", "value": "total inactivation; also recorded: completely inhibited"}, {"measurement": "Relative activity (%)", "setting": "[1]", "value": 0, "unit": "%"}, {"measurement": "Relative activity (%)", "setting": "[2]", "value": 0, "unit": "%"}]}, {"smiles": "O=[N+]([O-])c1ccc(O)c(CBr)c1", "note": "[2-Hydroxy-5-nitroxyl-5-nitrobenzyl-bromide]", "values": [{"measurement": "Relative activity (%)", "setting": "[1]", "value": 85.5, "unit": "%"}, {"measurement": "Relative activity (%)", "setting": "[2]", "value": 63.3, "unit": "%"}, {"measurement": "Effect on xylanase activity (in words)", "setting": "[3]", "value": "inhibitory"}]}, {"smiles": "O=C(O)c1cc[c]([Hg+])cc1.[OH-]", "note": "[Hydroxymercuribenzoate, p-hydroxymercuribenzoate]", "values": [{"measurement": "Effect on xylanase activity (in words)", "setting": "reagent 1 mM", "value": "total inactivation"}, {"measurement": "Relative activity (%)", "setting": "[1]", "value": 0, "unit": "%"}, {"measurement": "Relative activity (%)", "setting": "[2]", "value": 0, "unit": "%"}]}]}
